Data as given in patent publication US6660910B1, “Selection marker” (Syngenta Mogen B.V., priority 1997, dated 2003).

Legend:
Format in all cases: cell-based
[1] = tested on: cotyledons of Lycopersicon esculentum cv. Money Maker; test: Transformation of tomato cotyledon explants with selection on cyanamide or kanamycin
Protocol: Described below is the method used for transformation of cotyledons of Lycopersicon esculentum cv. Money Maker using Agrobacterium tumefaciens. The binary vectors and Agrobacteria strains for this transformation method are identical to those described above. Tomato seedlings were germinated on Germination Medium (GEM) under a 16 h light period (1700 lux) at 24° C. and a 8 h dark period at 21° C. (The contents of the various media can be found in Table 4). Cotyledon explants of 5 to 7 day old seedlings were cut on sterile filter paper soaked with Washing Medium (WAM) and placed on plates containing Cocultivation Medium (COM). The plates, each containing approximately 50 explants, were incubated overnight under the same conditions as described above.
The pre incubated explants were carefully submerged in the Agrobacterium inoculum for 20 minutes.
The explants were then blotted dry on sterile filter paper and incubated for 48 h on the second set of Cocultivation plates. In procession the explants were incubated for 72 h on plates containing Postcultivation Medium (POM) after which the explants were transferred to Shoot inducing Medium (SIM) containing several concentrations of cyanamide or kanamycin. Every three weeks the explants were subcultured on the same medium. After approximately 8-12 weeks shoots were excised and placed on Root inducing Medium (RIM). Shoots that were able to root were then transferred to Root inducing Medium containing 50 mg/l cyanamide or 30 mg/l kanamycin. Simultaneously leaflets of the rooted shoots were tested for expression of the gus gene in a histochemical GUS assay.

[2] = tested on: non-morphogenic cell suspensions of Oryza sativa cv. IR 52; test: Rice transformation by particle gun with cyanamide or hygromycin selection
Protocol: Described below is the method used for transformation of non-morphogenic cell suspensions of Oryza sativa cv. IR 52 using a particle inflow gun (PIG) according to Finer et al. (Plant Cell Rep. 11, 323-328, 1992).
A long-term, non-morphogenic suspension culture of Oryza sativa cv. IR 52 was subcultured in weekly intervals in liquid LS-4 (Linsmaier and Skoog, Physiol. Plant. 18, 100-127, 1962) medium and maintained on a rotary shaker (110 rpm) at 28° C. in the dark. (The contents of the LS-4 medium can be found in Table Z). 3-4 days after the last subculture 1.5 ml of this cell suspension (appro. 1.5×10^6 cells) were evenly spread on a filter paper (Whatman no 4) which was subsequently placed on solidified LS-4 medium and cultivated in the dark at 28° C. for 24 h and directly used for bombardment thereafter. For microprojectile bombardment a home-made particle inflow gun (PIG) according to Finer et al. (1992) was used. 300 μg tungsten particles coated with either pMOG 617 (35S-gus and 35S-hyg) or pMOG 873 (35S-cah) were loaded on a particle support. The particles were accelerated by a 2.5 bar helium pulse and had to pass a 500 μm metal stop screen, placed 2 cm under the particle support. The suspension cells were placed 15 cm under the particle support. The PIG was evacuated to 30 mbar before bombardment. After bombardment the cells were cultured at 28° C. in the dark for 3 days. Then the filters with the cells were transferred to solid LS-4 medium containing various concentrations of cyanamide or 50 mg/l hygromycinB (see table 6). The subculture was repeated every 9 days. Resistant microcalli that were visible after 4-6 weeks were transferred to fresh LS-4 medium containing the respective selective agent. From two experiments 7+41 calli transformed with pMOG617 were found resistant to hygromycin, while for the transformation with pMOG873 7 calli survived cyanamide 20 mg/l in the first experiment (results from the second experiment not yet available) and 0+4 calli remained viable on 40 mg/l cyanamide. […] The transgenic nature was confirmed by testing parts of the developing callus for the presence of the DNA in the callitransformed with pMOG873.

[3] = tested on: regenerable embryogenic suspension of Grand nain; test: Kill curves in banana (Musa); details: for % Live cells as assessed by FDA: 21 days; for % Callus Growth: approximate visual estimate
Protocol: To test the potential of cyanamide as a selection agent for transformation in banana two kill curves were set up with a regenerable embryogenic suspension of Grand nain 6 day old embryogenic suspension (Ed6b) cultures, subbed routinely in M2 2,4D liquid, containing 4.32 g/l MS salts, 45 g/l sucrose, standard 1×concn. MS vitamins, 100mg/l glutamine, 100 mg/l myo-inositol, 100 mg/l biotin, 100mg/l malt extract at pH 5.3 and added after autoclaving 1.2 mg/l 2,4-D and 0.8 mg/l picloram.
Cultures were sieved (>250μ, <710μ) and aliquots of approx 50 μl sieved culture in 300μl volume of liquid were pipetted onto two kill curve media as detailed below (3 reps per plate). Culture growth and survival were monitored over the following 3 weeks and cell survival assessed after 21 days via FDA staining.
Kill Curve Medium A : M2/MS/1.0 2,4-D (as M2/MS/2,4-D except only 1.0 mg/l 2,4-D, no picloram and +2.25 g/l gelrite): this medium promotes the rapid division and growth of embryogenic callus, but not embryos. Kill Curve Medium B : M2/SH/0.5Pic, 0.5 2,4-D (as M2/MS/2,4-D except only 0.5 mg/l 2,4-D and 0.5 mg/l picloram, SH salts (4.32 g/1) instead of MS, +2.25 g/l gelrite): This medium promotes the early development of embryos which can be matured and germinated by transfer to alternative media.
Cyanamide was added to both media types, after autoclaving, to concentrations of 0,20,30,50,75,100,150 mg/l.

[4] = pMOG410 (gus-nptII), Cyanamide 20 mg/l during regeneration, 30 inoculated explants
[5] = pMOG410 (gus-nptII), Cyanamide 30 mg/l during regeneration, 30 inoculated explants
[6] = pMOG410 (gus-nptII), Cyanamide 40 mg/l during regeneration, 30 inoculated explants
[7] = pMOG1156 (gus-nptII-cah), Cyanamide 20 mg/l during regeneration, 30 inoculated explants
[8] = pMOG1156 (gus-nptII-cah), Cyanamide 30 mg/l during regeneration, 30 inoculated explants
[9] = pMOG1156 (gus-nptII-cah), Cyanamide 40 mg/l during regeneration, 30 inoculated explants
[10] = Medium M2/MS/2,4-D, cyanamide 20 mg/l
[11] = Medium M2/MS/2,4-D, cyanamide 30 mg/l
[12] = Medium M2/MS/2,4-D, cyanamide 50 mg/l
[13] = Medium M2/MS/2,4-D, cyanamide 75 mg/l
[14] = Medium M2/MS/2,4-D, cyanamide 100 mg/l
[15] = Medium M2/MS/2,4-D, cyanamide 150 mg/l
[16] = Medium M2/SH/0.5Pic +0.5 2,4-D, cyanamide 20 mg/l
[17] = Medium M2/SH/0.5Pic +0.5 2,4-D, cyanamide 30 mg/l
[18] = Medium M2/SH/0.5Pic +0.5 2,4-D, cyanamide 50 mg/l
[19] = Medium M2/SH/0.5Pic +0.5 2,4-D, cyanamide 75 mg/l
[20] = Medium M2/SH/0.5Pic +0.5 2,4-D, cyanamide 150 mg/l
[21] = pMOG410 (gus-nptII), Kanamycin 100 mg/l during regeneration, 30 inoculated explants
[22] = pMOG1156 (gus-nptII-cah), Kanamycin 100 mg/l during regeneration, 30 inoculated explants

## N#CN [Cyanamide]
[1]; [4]
  No. of excised shoots: 0
  No. of gus + shoots: 0
[1]; pMOG410 (gus-nptII), Cyanamide 20 mg/l during regeneration, 30 inoculated explants, rooting medium 50 mg/l cyanamide
  No. of rooting shoots: 0
[1]; [5]
  No. of excised shoots: 3
  No. of gus + shoots: 0
[1]; pMOG410 (gus-nptII), Cyanamide 30 mg/l during regeneration, 30 inoculated explants, rooting medium 50 mg/l cyanamide
  No. of rooting shoots: 0
[1]; [6]
  No. of excised shoots: 0
  No. of gus + shoots: 0
[1]; pMOG410 (gus-nptII), Cyanamide 40 mg/l during regeneration, 30 inoculated explants, rooting medium 50 mg/l cyanamide
  No. of rooting shoots: 0
[1]; pMOG874 (cah-nptII), Cyanamide 20 mg/l during regeneration, 35 inoculated explants
  No. of excised shoots: 2
[1]; pMOG874 (cah-nptII), Cyanamide 20 mg/l during regeneration, 35 inoculated explants, rooting medium 50 mg/l cyanamide
  No. of rooting shoots: 0
[1]; pMOG874 (cah-nptII), Cyanamide 30 mg/l during regeneration, 35 inoculated explants
  No. of excised shoots: 0
[1]; pMOG874 (cah-nptII), Cyanamide 30 mg/l during regeneration, 35 inoculated explants, rooting medium 50 mg/l cyanamide
  No. of rooting shoots: 0
[1]; pMOG874 (cah-nptII), Cyanamide 40 mg/l during regeneration, 35 inoculated explants
  No. of excised shoots: 1
[1]; pMOG874 (cah-nptII), Cyanamide 40 mg/l during regeneration, 35 inoculated explants, rooting medium 50 mg/l cyanamide
  No. of rooting shoots: 1
[1]; [7]
  No. of excised shoots: 0
  No. of gus + shoots: 0
[1]; pMOG1156 (gus-nptII-cah), Cyanamide 20 mg/l during regeneration, 30 inoculated explants, rooting medium 50 mg/l cyanamide
  No. of rooting shoots: 0
[1]; [8]
  No. of excised shoots: 5
  No. of gus + shoots: 0
[1]; pMOG1156 (gus-nptII-cah), Cyanamide 30 mg/l during regeneration, 30 inoculated explants, rooting medium 50 mg/l cyanamide
  No. of rooting shoots: 0
[1]; [9]
  No. of excised shoots: 5
  No. of gus + shoots: 3
[1]; pMOG1156 (gus-nptII-cah), Cyanamide 40 mg/l during regeneration, 30 inoculated explants, rooting medium 50 mg/l cyanamide
  No. of rooting shoots: 3
[2]; 50 mg/l cyanamide or higher
  Callus formation: No calli were formed
[2]; pMOG873 (35S-cah), 40 mg/l cyanamide, two experiments
  Calli that remained viable: 0+4
[2]; pMOG873 (35S-cah), cyanamide 20 mg/l, first experiment
  Calli that survived: 7
[2]; pMOG873, 40 mg/l cyanamide
  Surviving calli positive in a PCR experiment on the cah-gene: One of the 4
[3]
  Concentration up to which there is no significant visual browning of cultures and release of phenolics: > 75 mg/L
[3]; 20 mg/l, read-out: Inhibition of the growth of embryogenic callus
  inhibition at 20 µg/mL: 40 to 50%
[3]; [10]
  % Live cells as assessed by FDA: 60%
  % Callus Growth: +30%
[3]; [11]
  % Live cells as assessed by FDA: 50%
  % Callus Growth: +20%
[3]; [12]
  % Live cells as assessed by FDA: 20%
  % Callus Growth: 0%
[3]; [13]
  % Live cells as assessed by FDA: 10%
  % Callus Growth: 0%
[3]; [14]
  % Live cells as assessed by FDA: 10%
  % Callus Growth: 0%
[3]; [15]
  % Live cells as assessed by FDA: 0%
  % Callus Growth: 0%
[3]; [16]
  Embryos Formed (average): 0
  % Live cells as assessed by FDA: 50%
[3]; [17]
  Embryos Formed (average): 0
  % Live cells as assessed by FDA: 40%
[3]; [18]
  Embryos Formed (average): 0
  % Live cells as assessed by FDA: 30%
[3]; [19]
  Embryos Formed (average): 0
  % Live cells as assessed by FDA: 20%
[3]; Medium M2/SH/0.5Pic +0.5 2,4-D, cyanamide 100 mg/l
  Embryos Formed (average): 0
[3]; [20]
  Embryos Formed (average): 0
  % Live cells as assessed by FDA: 0%
[3]; lowest concentration tested (20 mg/l)
  Embryogenesis: totally inhibited

## NC[C@H]1O[C@H](O[C@H]2[C@H](O)[C@@H](O[C@H]3O[C@H](CO)[C@@H](O)[C@H](N)[C@H]3O)[C@H](N)C[C@@H]2N)[C@H](O)[C@@H](O)[C@@H]1O [Kanamycin]
[1]; [21]
  No. of excised shoots: 4
  No. of gus + shoots: 3
[1]; pMOG410 (gus-nptII), Kanamycin 100 mg/l during regeneration, 30 inoculated explants, rooting medium 30 mg/l kanamycin
  No. of rooting shoots: 3
[1]; pMOG874 (cah-nptII), Kanamycin 100 mg/l during regeneration, 35 inoculated explants
  No. of excised shoots: 4
[1]; pMOG874 (cah-nptII), Kanamycin 100 mg/l during regeneration, 35 inoculated explants, rooting medium 30 mg/l kanamycin
  No. of rooting shoots: 1
[1]; [22]
  No. of excised shoots: 5
  No. of gus + shoots: 4
[1]; pMOG1156 (gus-nptII-cah), Kanamycin 100 mg/l during regeneration, 30 inoculated explants, rooting medium 30 mg/l kanamycin
  No. of rooting shoots: 3
